{
  "source": "paper PMC10331583",
  "about": "“Control of fibrosis with enhanced safety via asymmetric inhibition of prolyl‐tRNA synthetase 1” (EMBO Molecular Medicine, 2023)",
  "key": {"[1]": {"biological_target": "T1, His‐PARS1 (Homo sapiens, UniProt P07814)", "T1 construct": "His‐PARS1 (1001–1,512 aa); made in house; host or cells: Escherichia coli", "T1 sequence (P07814 1001-1512 limits assumed)": "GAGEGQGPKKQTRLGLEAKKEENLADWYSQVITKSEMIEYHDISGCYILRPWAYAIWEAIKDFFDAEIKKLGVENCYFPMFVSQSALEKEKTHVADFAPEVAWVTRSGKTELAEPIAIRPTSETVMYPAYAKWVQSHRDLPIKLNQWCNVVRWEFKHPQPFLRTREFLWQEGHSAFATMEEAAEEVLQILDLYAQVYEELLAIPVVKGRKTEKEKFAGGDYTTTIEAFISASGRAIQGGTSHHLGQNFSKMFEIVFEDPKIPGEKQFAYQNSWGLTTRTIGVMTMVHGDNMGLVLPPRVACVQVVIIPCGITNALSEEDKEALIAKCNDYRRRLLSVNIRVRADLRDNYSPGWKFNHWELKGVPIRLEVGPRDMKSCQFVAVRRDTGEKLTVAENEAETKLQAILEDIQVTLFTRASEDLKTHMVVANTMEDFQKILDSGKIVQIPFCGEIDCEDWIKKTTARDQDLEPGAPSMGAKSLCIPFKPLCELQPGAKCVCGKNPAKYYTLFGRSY", "experiment": "Surface plasmon resonance (SPR)", "type": "binding"}, "[2]": {"tested_on": "WI‐26 VA4 cells stably expressing PARS1 FA/EA/RL mutant", "experiment": "Collagen ELISA in cells stably expressing PARS1 mutant", "settings": "for Collagen level, average: average of 4 experiments; for Collagen level, single replicates: replicates of Experiments #1-#4"}, "[3]": {"tested_on": "C57BL/6 mice", "experiment": "Bleomycin‐induced lung fibrosis, therapeutic model 1 (compounds from a week after bleomycin)", "type": "in vivo", "method": "To examine therapeutic efficacy of DWN12088, all experiments were conducted following the international guidelines on the ethical use of experimental animals and approved by the Institutional Animal Care and Use Committee of Daewoong Pharmaceutical (IACUC‐21‐014). C57BL/6 mice (7–8‐week‐old, male, obtained from Orient Bio) were anesthetized with Zoletil and injected intratracheally with 100 μl bleomycin (2 units/kg) (Merck, B8416) to induce lung fibrosis. A group of disease‐free mice (“untreated”) were injected with PBS instead of bleomycin. After a week, mice treated with bleomycin were randomized to (i) vehicle (saline), (ii) HF 0.05 mg/kg, (iii) HF 0.1 mg/kg, and (iv) DWN12088 10 mg/kg groups (n = 5 for each group) according to their body weight. The drugs were orally administered once daily for 2 weeks, and then the outcome was analyzed. For the experiments testing the effect of the compounds 2 weeks after bleomycin challenge, the experiment was approved by IACUC of Daewoong Pharmaceutical (IACUC‐22‐009). The experimental procedures were performed following the methods described previously, with the exception that the compounds were administered 2 weeks after bleomycin challenge. The experiments were conducted as non‐blind tests.\nMice were anesthetized with Zoletil for 10 min, and a portable mouse pulse oximeter (Veterinary Pulse Oximeter, Berry Electronic) was placed on each mouse's body. The measurements were continued to allow the recording of 3 min of a stable signal.\nThe collagen contents of lung tissues were measured using Sircol™ soluble collagen assay (Biocolor Ltd., S1000) following the manufacturer's instructions. Briefly, the right lung lobes were homogenized, and collagen was solubilized in 0.5 M acetic acid. Tissue extracts were incubated with Sirius red dye, and the absorbance was determined at 540 nm using a spectrophotometer. The amount of collagen was expressed relative to the wet weight of the tissues.\nThe lung tissues were fixed in paraformaldehyde and embedded in paraffin. The paraffin‐embedded blocks were sectioned at 4 μm and then mounted onto glass slides. After deparaffinization and rehydration, the slides were fixed with Bouin's solution (Sigma Aldrich, HT10132‐1L) for 1 h. Then, the slides were incubated with hematoxylin (Sigma Aldrich, MHS16‐500ML), Biebrich Scarlet (Sigma Aldrich, B‐6008) and acid fuchsin (Sigma Aldrich, A‐3908), phosphomolybdic (DAEJUNG, 6531‐4105) and phosphotungstic acid (DAEJUNG, 6539‐4105), aniline blue (DAEJUNG, 1087‐4125), and then 1% (v/v) acetic acid (DUKSAN, UN2789). After dehydration, the slides were mounted onto cover slips and scanned using slide scanner (3D HISTECH, Pannoramic MIDI). Fibrotic area of the images was quantified by using Image J plugin, color deconvolution 2."}, "[4]": {"settings": "WI-26 VA4 Flag-PARS1 FA/EA/RL, 30 nM"}, "[5]": {"settings": "WI-26 VA4 Flag-PARS1 FA/EA/RL, 100 nM"}, "[6]": {"settings": "WI-26 VA4 Flag-PARS1 FA/EA/RL, 300 nM"}, "[7]": {"settings": "WI-26 VA4 Flag-PARS1 FA/EA/RL, 1000 nM"}, "[8]": {"settings": "WI-26 VA4 Flag-PARS1 FA/EA/RL, 3000 nM"}, "[9]": {"settings": "WI-26 VA4 Flag-PARS1 FA/EA/RL, 10000 nM"}, "[10]": {"settings": "WI-26 VA4 Flag-PARS1 FA/EA/RL, 30000 nM"}, "[11]": {"settings": "WI-26 VA4 Flag-PARS1 FA/EA/RL, 100000 nM"}, "[12]": {"settings": "WI-26 VA4 Flag-PARS1 FA/EA/RL, 300000 nM"}},
  "note": "“And” between values parts separate entries of the source, which are not always exact repeats. Identical values can stand only once.",
  "data": [
    {"smiles": "O[C@H]1CCCN[C@@H]1CCCn1cnc2c(Cl)c(Cl)ccc21", "note": "[DWN12088]", "values": [
      {"measurement": "Kd", "setting": "[1]; KD, + ATP (1 mM)", "result": 31.1, "unit": "µM"},
      {"measurement": "Kd", "setting": "[1]; KD, - ATP", "result": "> 300", "unit": "µM"},
      {"measurement": "Kd", "setting": "[1]; Kd, SPR, in the presence of ATP", "result": 31, "unit": "µM"},
      {"measurement": "IC50", "setting": "[2]; Homo sapiens, WI26VA4, read-out: IC50, collagen level", "result": 1.49, "unit": "µM"},
      {"measurement": "CC50/collagen IC50", "setting": "[2]; PARS1 FA/EA/RL cells", "result": 7.88},
      {"measurement": "Relative (CC50)/(collagen IC50)", "setting": "[2]; PARS1 FA/EA/RL cells, relative to EV", "result": 0.63},
      {"measurement": "Collagen level, average", "setting": "[2]; [4]", "result": "96.80 % of control"},
      {"measurement": "Collagen level, single replicates", "setting": "[2]; [4]", "result": "101.27 % of control and 106.03 % of control and 102.09 % of control and 97.52 % of control and 107.38 % of control and 87.30 % of control and 97.03 % of control and 100.22 % of control and 82.11 % of control and 93.95 % of control and 95.06 % of control and 91.64 % of control"},
      {"measurement": "Collagen level, average", "setting": "[2]; [5]", "result": "91.15 % of control"},
      {"measurement": "Collagen level, single replicates", "setting": "[2]; [5]", "result": "92.43 % of control and 98.06 % of control and 99.31 % of control and 91.83 % of control and 92.72 % of control and 85.46 % of control and 90.73 % of control (2×) and 82.66 % of control and 81.56 % of control and 88.43 % of control and 99.91 % of control"},
      {"measurement": "Collagen level, average", "setting": "[2]; [6]", "result": "79.61 % of control"},
      {"measurement": "Collagen level, single replicates", "setting": "[2]; [6]", "result": "87.41 % of control and 88.18 % of control and 78.49 % of control and 71.44 % of control and 76.98 % of control and 80.63 % of control and 81.90 % of control and 76.13 % of control and 73.84 % of control and 86.07 % of control and 78.20 % of control and 75.99 % of control"},
      {"measurement": "Collagen level, average", "setting": "[2]; [7]", "result": "62.53 % of control"},
      {"measurement": "Collagen level, single replicates", "setting": "[2]; [7]", "result": "72.91 % of control and 64.62 % of control and 69.50 % of control and 60.49 % of control and 52.43 % of control and 63.48 % of control and 72.89 % of control and 52.77 % of control and 57.64 % of control and 59.18 % of control and 66.74 % of control and 57.76 % of control"},
      {"measurement": "Collagen level, average", "setting": "[2]; [8]", "result": "26.56 % of control"},
      {"measurement": "Collagen level, single replicates", "setting": "[2]; [8]", "result": "25.97 % of control and 27.35 % of control and 25.49 % of control and 26.93 % of control and 30.39 % of control and 26.86 % of control and 25.02 % of control and 29.58 % of control and 24.14 % of control and 24.80 % of control and 25.63 % of control and 26.57 % of control"},
      {"measurement": "Collagen level, average", "setting": "[2]; [9]", "result": "4.37 % of control"},
      {"measurement": "Collagen level, single replicates", "setting": "[2]; [9]", "result": "4.38 % of control and 3.58 % of control and 3.17 % of control and 5.34 % of control and 4.53 % of control and 5.67 % of control and 3.18 % of control and 3.93 % of control and 4.88 % of control and 4.67 % of control and 4.47 % of control and 4.59 % of control"},
      {"measurement": "Collagen level, average", "setting": "[2]; [10]", "result": "2.20 % of control"},
      {"measurement": "Collagen level, single replicates", "setting": "[2]; [10]", "result": "2.07 % of control and 2.38 % of control and 2.98 % of control and 3.14 % of control and 2.40 % of control and 2.09 % of control and 1.49 % of control and 1.46 % of control and 1.88 % of control (2×) and 2.96 % of control and 1.71 % of control"},
      {"measurement": "Collagen level, average", "setting": "[2]; [11]", "result": "1.94 % of control"},
      {"measurement": "Collagen level, single replicates", "setting": "[2]; [11]", "result": "2.11 % of control and 2.24 % of control and 1.83 % of control and 2.90 % of control and 1.40 % of control and 1.89 % of control and 1.44 % of control and 1.33 % of control and 1.75 % of control and 1.90 % of control and 2.31 % of control and 2.15 % of control"},
      {"measurement": "Collagen level, average", "setting": "[2]; [12]", "result": "1.36 % of control"},
      {"measurement": "Collagen level, single replicates", "setting": "[2]; [12]", "result": "1.67 % of control and 0.92 % of control and 0.84 % of control and 1.94 % of control"},
      {"measurement": "HillSlope, collagen level", "setting": "[2]; WI-26 VA4 Flag-PARS1 FA/EA/RL, four-parameter fit", "result": -1.331},
      {"measurement": "LogIC50, collagen level", "setting": "[2]; WI-26 VA4 Flag-PARS1 FA/EA/RL, log of concentration in nM, four-parameter fit", "result": 3.174},
      {"measurement": "efficacy (SpO2, BALF total cell count, collagen contents)", "setting": "[3]; 10 mg/kg oral once a day, 2 weeks, versus nintedanib 60 mg/kg and pirfenidone 200 mg/kg (Fig EV4D–F)", "result": "comparable with nintedanib and pirfenidone"},
      {"measurement": "BALF total cell count, average", "setting": "[3]; BLM +, 10 mg/kg", "result": "8.46 x105 cells"},
      {"measurement": "BALF total cell count, single animal", "setting": "[3]; BLM +, 10 mg/kg", "result": "9.8 x105 cells and 8.9 x105 cells and 6.4 x105 cells and 7.5 x105 cells and 9.7 x105 cells"},
      {"measurement": "Collagen contents, average", "setting": "[3]; BLM +, 10 mg/kg", "result": 213.8, "unit": "μg/right lung"},
      {"measurement": "Collagen contents, single animal", "setting": "[3]; BLM +, 10 mg/kg", "result": "175 μg/right lung and 275 μg/right lung and 198 μg/right lung and 165 μg/right lung and 256 μg/right lung"},
      {"measurement": "Fibrotic area, average", "setting": "[3]; BLM +, 10 mg/kg", "result": "173.8 % of control"},
      {"measurement": "Fibrotic area, single animal", "setting": "[3]; BLM +, 10 mg/kg", "result": "230.8 % of control and 181.2 % of control and 123.5 % of control and 151.5 % of control and 182.0 % of control"},
      {"measurement": "SpO2, average", "setting": "[3]; BLM +, 10 mg/kg", "result": 81.0, "unit": "%"},
      {"measurement": "SpO2, single animal", "setting": "[3]; BLM +, 10 mg/kg", "result": "87% and 81% and 88% and 72% and 77%"},
      {"measurement": "collagen deposition, Masson's trichrome staining", "setting": "[3]; lung tissue (Fig 1H and I)", "result": "decreased collagen deposition in the interstitial spaces"},
      {"measurement": "fibrotic properties", "setting": "[3]; model 1, drug administration from day 7", "result": "significantly reduced fibrotic properties"},
      {"measurement": "in vivo effective dose of DWN12088 relative to that of HF", "setting": "[3]; mouse, in vivo", "result": "about 100 times"}
    ]}
  ]
}
